Measured values taken from patent US20240398784A1, “C-LINKED ISOQUINOLINE AMIDES AS LRRK2 INHIBITORS, PHARMACEUTICAL COMPOSITIONS, AND USES THEREOF” (Merck Sharp & Dohme LLC, priority 2021, published 2024).

These compounds were tested against LRRK2 G2019S (Homo sapiens, UniProt Q5S007, G2019S) (assay: LRRK2 G2019S Km ATP LanthaScreen assay). Details: not given.
Chain of LRRK2 G2019S (Q5S007 whole entry G2019S): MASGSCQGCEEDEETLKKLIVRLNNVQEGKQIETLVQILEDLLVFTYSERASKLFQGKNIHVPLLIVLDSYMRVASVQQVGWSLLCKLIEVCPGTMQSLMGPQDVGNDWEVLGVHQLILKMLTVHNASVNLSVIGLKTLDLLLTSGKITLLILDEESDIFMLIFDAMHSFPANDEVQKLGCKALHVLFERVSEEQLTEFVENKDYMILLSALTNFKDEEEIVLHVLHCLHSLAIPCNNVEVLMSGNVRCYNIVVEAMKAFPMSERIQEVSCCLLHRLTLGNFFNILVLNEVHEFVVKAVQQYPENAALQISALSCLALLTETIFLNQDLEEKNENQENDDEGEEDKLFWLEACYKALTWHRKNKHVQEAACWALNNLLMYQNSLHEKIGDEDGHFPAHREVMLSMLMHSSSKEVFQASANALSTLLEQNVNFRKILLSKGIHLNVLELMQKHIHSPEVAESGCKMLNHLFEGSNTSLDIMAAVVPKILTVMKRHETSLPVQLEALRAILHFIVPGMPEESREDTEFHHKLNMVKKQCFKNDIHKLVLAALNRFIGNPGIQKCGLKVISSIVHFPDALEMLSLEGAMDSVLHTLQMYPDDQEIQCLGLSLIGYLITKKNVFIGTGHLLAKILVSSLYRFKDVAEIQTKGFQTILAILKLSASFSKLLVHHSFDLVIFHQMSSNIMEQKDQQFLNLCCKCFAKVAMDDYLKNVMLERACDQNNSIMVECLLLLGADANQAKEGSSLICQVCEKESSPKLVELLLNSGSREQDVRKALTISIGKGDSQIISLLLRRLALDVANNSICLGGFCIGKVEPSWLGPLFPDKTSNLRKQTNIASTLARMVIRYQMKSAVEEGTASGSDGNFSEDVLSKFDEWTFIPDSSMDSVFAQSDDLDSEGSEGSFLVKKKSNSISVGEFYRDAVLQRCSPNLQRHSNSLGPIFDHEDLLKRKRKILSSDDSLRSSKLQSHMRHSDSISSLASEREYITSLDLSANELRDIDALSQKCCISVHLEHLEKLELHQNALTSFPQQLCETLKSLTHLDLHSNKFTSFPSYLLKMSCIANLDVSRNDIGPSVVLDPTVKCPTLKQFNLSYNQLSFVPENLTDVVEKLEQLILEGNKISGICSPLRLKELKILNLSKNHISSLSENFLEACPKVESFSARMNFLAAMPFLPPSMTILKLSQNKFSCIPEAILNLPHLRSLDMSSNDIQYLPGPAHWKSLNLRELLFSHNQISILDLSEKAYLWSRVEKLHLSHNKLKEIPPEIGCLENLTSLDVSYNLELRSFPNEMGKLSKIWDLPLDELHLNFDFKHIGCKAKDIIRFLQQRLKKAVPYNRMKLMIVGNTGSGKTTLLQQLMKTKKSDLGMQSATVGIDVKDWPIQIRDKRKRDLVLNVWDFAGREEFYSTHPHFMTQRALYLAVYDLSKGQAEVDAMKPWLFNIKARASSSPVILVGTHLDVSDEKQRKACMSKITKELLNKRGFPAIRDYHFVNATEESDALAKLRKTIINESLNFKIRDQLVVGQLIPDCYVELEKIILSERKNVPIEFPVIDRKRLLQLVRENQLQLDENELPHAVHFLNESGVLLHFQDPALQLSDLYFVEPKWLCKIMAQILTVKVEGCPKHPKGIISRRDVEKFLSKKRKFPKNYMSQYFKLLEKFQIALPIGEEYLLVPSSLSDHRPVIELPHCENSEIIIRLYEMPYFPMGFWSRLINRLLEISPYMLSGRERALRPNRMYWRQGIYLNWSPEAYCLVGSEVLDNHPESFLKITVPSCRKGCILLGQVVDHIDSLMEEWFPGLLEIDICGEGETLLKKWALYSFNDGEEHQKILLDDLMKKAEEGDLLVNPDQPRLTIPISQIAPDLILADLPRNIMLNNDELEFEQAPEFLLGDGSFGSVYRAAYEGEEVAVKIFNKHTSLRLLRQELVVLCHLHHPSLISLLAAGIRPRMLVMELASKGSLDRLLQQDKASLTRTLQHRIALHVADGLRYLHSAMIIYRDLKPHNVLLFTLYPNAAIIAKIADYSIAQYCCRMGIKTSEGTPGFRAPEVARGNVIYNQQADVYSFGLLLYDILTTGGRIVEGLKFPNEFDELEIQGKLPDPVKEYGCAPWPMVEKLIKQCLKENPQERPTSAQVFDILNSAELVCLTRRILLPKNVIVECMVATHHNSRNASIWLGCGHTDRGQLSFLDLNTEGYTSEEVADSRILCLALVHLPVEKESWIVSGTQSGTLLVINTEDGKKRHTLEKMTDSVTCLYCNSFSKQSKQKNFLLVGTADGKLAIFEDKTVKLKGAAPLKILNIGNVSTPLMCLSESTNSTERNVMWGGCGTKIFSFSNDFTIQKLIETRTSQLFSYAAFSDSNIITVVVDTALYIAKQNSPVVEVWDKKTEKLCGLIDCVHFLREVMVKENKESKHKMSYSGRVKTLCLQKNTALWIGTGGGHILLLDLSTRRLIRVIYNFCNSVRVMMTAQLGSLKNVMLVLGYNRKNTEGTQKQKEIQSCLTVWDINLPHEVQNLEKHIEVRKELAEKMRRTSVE
Format: biochemical
For Cn1ncc(C2CC2C(=O)Nc2cc3cc(C4CCN(C5(C)COCC5O)CC4)c(Cl)cc3cn2)n1 [Ex-20.1, (1R,2R and 1S,2S)-N-(7-chloro-6-(1-(4-hydroxy-3-methyltetrahydrofuran-3-yl)piperidin-4-yl)isoquinolin-3-yl)-2-(2-methyl-2H-1,2,3-triazol-4-yl)cyclopropane-1-carboxamide], the “LRRK2 pIC50” value was 10.09.

Same assay, conditions: read-out: LRRK2 pIC50 (converted)
With CC(C)(O)C1CC1C(=O)Nc1cc2cc(C3CCN(C4(C)CCOC4)CC3)c(Cl)cc2cn1 (single isomer, unassigned) [Ex-6.15, N-(7-chloro-6-(1-(3-methyltetrahydrofuran-3-yl)piperidin-4-yl)isoquinolin-3-yl)-2-(2-hydroxypropan-2-yl)cyclopropane-1-carboxamide] the IC50 was 0.115 nM. O=C(Nc1cc2cc(C3CCN(C4COC4)CC3)c(Cl)cc2cn1)C1CC(OC(F)F)C1 (single isomer, unassigned) [Ex-2.3] showed an IC50 of 5.62 nM. Work on CC1(N2CCC(c3cc4cc(NC(=O)c5cnn(C6CC6)c5Cl)ncc4cc3Cl)CC2)COCC1O (single isomer, unassigned) [Ex-1.50, 5-chloro-N-(7-chloro-6-(1-((3R,4R or 3S,4S)-4-hydroxy-3-methyltetrahydrofuran-3-yl)piperidin-4-yl)isoquinolin-3-yl)-1-cyclopropyl-1H-pyrazole-4-carboxamide] yielded an IC50 of 0.0813 nM. For COC1CN(C2CCC(c3cc4cc(NC(=O)C5CC56CCOCC6)ncc4cc3Cl)CC2)C1 (single isomer, unassigned) [Ex-11.4, N-(7-chloro-6-(4-(3-methoxyazetidin-1-yl)cyclohexyl)isoquinolin-3-yl)-6-oxaspiro[2.5]octane-1-carboxamide], the IC50 was 1.7 nM. CC1(N2CCC(c3cc4cc(NC(=O)C5CC5c5ccccn5)ncc4cc3Cl)CC2)CCOC1 (single isomer, unassigned) [Ex-6.33, N-(7-chloro-6-(1-(3-methyltetrahydrofuran-3-yl)piperidin-4-yl)isoquinolin-3-yl)-2-(pyridin-2-yl)cyclopropane-1-carboxamide] was tested, and the IC50 was 87.1 nM. With Cc1cc2cnc(NC(=O)C3CCOC(C)(C)C3)cc2cc1C1CCN(C2(C)COCC2O)CC1 (stereo not shown) [Ex-2.49] the IC50 was 0.513 nM. CCOC1CC2(C1)CC2C(=O)Nc1cc2cc(C3CCN(C4(C)COCC4O)CC3)c(Cl)cc2cn1 (single isomer, unassigned) [Ex-4.31, N-(7-chloro-6-(1-(4-hydroxy-3-methyltetrahydrofuran-3-yl)piperidin-4-yl)isoquinolin-3-yl)-5-ethoxyspiro[2.3]hexane-1-carboxamide] showed an IC50 of 5.62 nM. Work on CCC1C(C(=O)Nc2cc3cc(C4CCC(N5CC(C)(F)C5)CC4)c(Cl)cc3cn2)C1c1cnn(C)c1 (single isomer, unassigned) [Ex-11.1, (1R,2R,3R) or (1R,2S,3R) or (1S,2R,3S) or (1S,2S,3S)-N-(7-chloro-6-((cis or trans)-4-(3-fluoro-3-methylazetidin-1-yl)cyclohexyl)isoquinolin-3-yl)-2-ethyl-3-(1-methyl-1H-pyrazol-4-yl)cyclopropane-1-carboxamide] yielded an IC50 of 0.0813 nM. For Cc1nc(C(=O)Nc2cc3cc(C4CCN(C5COC5)CC4)c(Cl)cc3cn2)co1 [Ex-1.37, N-(7-chloro-6-(1-(oxetan-3-yl)piperidin-4-yl)isoquinolin-3-yl)-2-methyloxazole-4-carboxamide], the IC50 was 12.6 nM. Cn1cc(C2CC2C(=O)Nc2cc3cc(C4CCN(C5(C)COCC5F)CC4)c(Cl)cc3cn2)cn1 (single isomer, unassigned) [Ex-6.30, N-(7-chloro-6-(1-(4-fluoro-3-methyltetrahydrofuran-3-yl)piperidin-4-yl)isoquinolin-3-yl)-2-(1-methyl-1H-pyrazol-4-yl)cyclopropane-1-carboxamide] gave an IC50 of 1.45 nM. In the case of Cc1cc2cnc(NC(=O)C3C(C)C3c3cnn(C)c3)cc2cc1C1CCN(C2(C)COCC2F)CC1 (single isomer, unassigned) [Ex-16.7, N-(6-(1-(4-fluoro-3-methyltetrahydrofuran-3-yl)piperidin-4-yl)-7-methylisoquinolin-3-yl)-2-methyl-3-(1-methyl-1H-pyrazol-4-yl)cyclopropane-1-carboxamide], the IC50 was 0.0813 nM. With CC1(N2CCC(c3cc4cc(NC(=O)C5CCC5C#N)ncc4cc3Cl)CC2)COCC1F (stereo not shown) [Ex-2.94] the IC50 was 0.0813 nM. For COCC(C)c1cc2cc(NC(=O)C3CC34CCOCC4)ncc2cc1Cl (single isomer, unassigned) [Ex-9.12, N-(7-chloro-6-(1-methoxypropan-2-yl)isoquinolin-3-yl)-6-oxaspiro[2.5]octane-1-carboxamide], the IC50 was 35.5 nM. CC1(C)CC1(C#N)c1ccc2cnc(NC(=O)C3CC3)cc2c1 (single isomer, unassigned) [Ex-18.3, (R or S)-N-(6-(1-cyano-2,2-dimethylcyclopropyl)isoquinolin-3-yl)cyclopropanecarboxamide] showed an IC50 of 24 nM. With CC1CC1C(=O)Nc1cc2cc(C3CCN(C4COC4)CC3)c(Cl)cc2cn1 (single isomer, unassigned) [Ex-9.3, N-(7-chloro-6-(1-(oxetan-3-yl)piperidin-4-yl)isoquinolin-3-yl)-2-methylcyclopropane-1-carboxamide] the IC50 was 0.631 nM. With CC1(N2CCC(c3cc4cc(NC(=O)C5C6CCOCC65)ncc4cc3Cl)CC2)COCC1F (single isomer, unassigned) [Ex-6.43, N-(7-chloro-6-(1-(4-fluoro-3-methyltetrahydrofuran-3-yl)piperidin-4-yl)isoquinolin-3-yl)-3-oxabicyclo[4.1.0]heptane-7-carboxamide] the IC50 was 2.82 nM. CC1(N2CCC(c3cc4cc(NC(=O)C5CC56CCOCC6)ncc4cc3Cl)C(F)C2)COCC1O (single isomer, unassigned) [Ex-14.4, N-(7-chloro-6-(3-fluoro-1-(4-hydroxy-3-methyltetrahydrofuran-3-yl)piperidin-4-yl)isoquinolin-3-yl)-6-oxaspiro[2.5]octane-1-carboxamide] was tested, and the IC50 was 0.186 nM. Cc1cc2cnc(NC(=O)C3CC3c3ccccn3)cc2cc1C1CCN(C2(C)COCC2F)CC1 (single isomer, unassigned) [Ex-13.4, (1R,2R or 1S,2S)-N-(6-(1-((3R,4R or 3S,4S)-4-fluoro-3-methyltetrahydrofuran-3-yl)piperidin-4-yl)-7-methylisoquinolin-3-yl)-2-(pyridin-2-yl)cyclopropane-1-carboxamide] showed an IC50 of 21.9 nM. Compound CC1COCC1(C)N1CCC(c2cc3cc(NC(=O)C4CC45CCOCC5)ncc3cc2Cl)CC1 (single isomer, unassigned) [Ex-6.9, N-(7-chloro-6-(1-(3,4-dimethyltetrahydrofuran-3-yl)piperidin-4-yl)isoquinolin-3-yl)-6-oxaspiro[2.5]octane-1-carboxamide] has an IC50 of 0.813 nM. Work on O=C(Nc1cc2cc(C3CCN(C4COC4)CC3)c(Cl)cc2cn1)C1CCC1 [Ex-7.4, N-(7-chloro-6-(1-(oxetan-3-yl)piperidin-4-yl)isoquinolin-3-yl)cyclobutanecarboxamide] yielded an IC50 of 5.89 nM. Work on O=C(Nc1cc2cc(C3CCN(C4COC4)CC3)c(Cl)cc2cn1)C1CC12CCOCC2 (racemic) [Ex-1.9, Rac-N-(7-chloro-6-(1-(oxetan-3-yl)piperidin-4-yl)isoquinolin-3-yl)-6-oxaspiro[2.5]octane-1-carboxamide] yielded an IC50 of 2.88 nM. O=C(Nc1cc2cc(C3CCC(N4CC(F)C4)CC3)c(Cl)cc2cn1)C1CC1c1ccccn1 (single isomer, unassigned) [Ex-5.2, (1R,2R or 1S,2S)-N-(7-chloro-6-((cis or trans)-4-(3-fluoroazetidin-1-yl)cyclohexyl)isoquinolin-3-yl)-2-(pyridin-2-yl)cyclopropane-1-carboxamide] gave an IC50 of 661 nM. Work on Cn1cc(C(=O)Nc2cc3cc(C4CCN([C@]5(C)COC[C@@H]5O)CC4)c(Cl)cc3cn2)cn1 (single isomer, unassigned) [Ex-12.9, N-(7-chloro-6-(1-(4-hydroxy-3-methyltetrahydrofuran-3-yl)piperidin-4-yl)isoquinolin-3-yl)-1-methyl-1H-pyrazole-4-carboxamide] yielded an IC50 of 141 nM. In the case of CC1(C)CC(C(=O)Nc2cc3cc(C4CCN(C5(C)COCC5O)CC4)c(Cl)cc3cn2)CO1 (stereo not shown) [Ex-2.29], the IC50 was 0.234 nM. CC1(N2CCC(c3cc4cc(NC(=O)C5CC56CCOC6)ncc4cc3Cl)CC2)COCC1F (single isomer, unassigned) [Ex-6.8, (R or S)-N-(7-chloro-6-(1-((3R,4R or 3S,4S)-4-fluoro-3-methyltetrahydrofuran-3-yl)piperidin-4-yl)isoquinolin-3-yl)-5-oxaspiro [2.4] heptane-1-carboxamide] gave an IC50 of 34.7 nM. In the case of CCC1C(C(=O)Nc2cc3cc(C(C)COC)c(Cl)cc3cn2)C1c1cnn(C)c1 (single isomer, unassigned) [Ex-9.14, N-(7-chloro-6-(1-methoxypropan-2-yl)isoquinolin-3-yl)-2-ethyl-3-(1-methyl-1H-pyrazol-4-yl)cyclopropane-1-carboxamide], the IC50 was 1.17 nM. COC1COCC1(C)N1CCC(c2cc3cc(NC(=O)C4CC45CCOCC5)ncc3cc2Cl)CC1 (single isomer, unassigned) [Ex-6.23, N-(7-chloro-6-(1-(4-methoxy-3-methyltetrahydrofuran-3-yl)piperidin-4-yl)isoquinolin-3-yl)-6-oxaspiro[2.5]octane-1-carboxamide] showed an IC50 of 1.82 nM. In the case of CC(C)(O)C1CC(C(=O)Nc2cc3cc(C4CCN(C5(C)COCC5O)CC4)c(Cl)cc3cn2)C1 (stereo not shown) [Ex-2.14], the IC50 was 0.186 nM. Work on CC1(C)CC(C(=O)Nc2cc3cc(C4CCN(C5(C)CCOC5)CC4)c(Cl)cc3cn2)CCO1 (single isomer, unassigned) [Ex-6.45, N-(7-chloro-6-(1-(3-methyltetrahydrofuran-3-yl)piperidin-4-yl)isoquinolin-3-yl)-2,2-dimethyltetrahydro-2H-pyran-4-carboxamide] yielded an IC50 of 2.14 nM. Compound CCOC1CC2(C1)CC2C(=O)Nc1cc2cc(C3CCN(C4(C)COCC4O)CC3)c(Cl)cc2cn1 (single isomer, unassigned) [Ex-4.32, N-(7-chloro-6-(1-(4-hydroxy-3-methyltetrahydrofuran-3-yl)piperidin-4-yl)isoquinolin-3-yl)-5-ethoxyspiro[2.3]hexane-1-carboxamide] has an IC50 of 2.57 nM.
